In brackets after ≈: the same amount, converted by molar mass. Values belong to the molecule of their own block, whether it stands above or below them. Activity calls are given as the source filed them. The rule behind the calls is not given here.
Experiments:
NCI-H1299 [1] = assay: Anticancer activity against human NCI-H1299 cells assessed as inhibition of cell growth at 1 uM incubated for 72 hrs by MTT assay relative to control; type: functional
A549 [2] = assay: Anticancer activity against human A549 cells assessed as inhibition of cell growth at 1 uM incubated for 72 hrs by MTT assay relative to control; type: functional
NCI-H460 [3] = assay: Anticancer activity against human NCI-H460 cells assessed as inhibition of cell growth at 1 uM incubated for 72 hrs by MTT assay relative to control; type: functional
[4] = Volume of distribution at steady state in Sprague-Dawley rat at 2 mg/kg, iv; type: ADME, organism-based; conditions: in vivo, read-out: Vdss
[5] = Cmax in Sprague-Dawley rat at 10 mg/kg, po; type: ADME, organism-based; conditions: in vivo
[6] = Half life in Sprague-Dawley rat at 2 mg/kg, iv; type: ADME, organism-based; conditions: in vivo
[7] = Oral bioavailability in Sprague-Dawley rat at 10 mg/kg; type: ADME, organism-based; conditions: in vivo
[8] = Clearance in Sprague-Dawley rat at 2 mg/kg, iv; type: ADME, organism-based; conditions: in vivo
[9] = AUC in Sprague-Dawley rat at 10 mg/kg, po; type: ADME, organism-based; conditions: in vivo
[10] = Stability in mouse plasma assessed as parent compound remaining after 4 hrs; type: ADME, cell-free; conditions: read-out: Stability
[11] = Cytotoxicity against human A2780/CP20 cells incubated for 24 hrs; type: toxicity, cell-based; conditions: a2780/cp20, 24 h
[12] = Microsomal stability in human liver microsomes assessed as parent compound remaining measured after 30 mins; type: ADME, Microsome; conditions: read-out: Stability
[13] = Microsomal stability in rat liver microsomes assessed as parent compound remaining measured after 30 mins; type: ADME, Microsome; conditions: read-out: Stability
A549 [14] = assay: Anticancer activity against human A549 cells incubated for 24; type: functional, cell-based
[15] = Cytotoxicity against human HeyA8-MDR cells incubated for 24 hrs; type: toxicity, cell-based
NCI-H460 [16] = assay: Anticancer activity against human NCI-H460 cells incubated for 24; type: functional, cell-based
L929 = assay: Cytotoxicity against mouse L929 cells incubated for 24 hrs; type: toxicity, cell-based; conditions: l929, 24 h
NCI-H1299 [17] = assay: Anticancer activity against human NCI-H1299 cells incubated for 24; type: functional, cell-based
hERG (KCNH2) = hERG (KCNH2) (Homo sapiens, UniProt Q12809); assay: Inhibition of hERG at 10 uM relative to control; type: toxicity
NIH3T3 = assay: Cytotoxicity against mouse NIH3T3 cells incubated for 24 hrs; type: toxicity, cell-based; conditions: nih3t3, 24 h
[18] = Plasma protein binding in human; type: ADME, cell-free; conditions: read-out: PPB (converted)
[19] = Stability in rat plasma assessed as parent compound remaining after 4 hrs; type: ADME, cell-free; conditions: read-out: Stability
HeyA8-MDR = assay: Antitumor activity against human HeyA8-MDR cells xenografted in mouse assessed as tumor growth inhibition; type: functional, cell-based
[20] = Solubility of compound in 1 % DMSO-PBS buffer; type: physicochemical
[21] = Microsomal stability in mouse liver microsomes assessed as parent compound remaining measured after 30 mins; type: ADME, Microsome; conditions: read-out: Stability
Vero = assay: Cytotoxicity against african green monkey Vero cells incubated for 24 hrs; type: toxicity, cell-based; conditions: chlorocebus sabaeus
[22] = Stability in human plasma assessed as parent compound remaining after 4 hrs; type: ADME, cell-free; conditions: read-out: Stability
HFL1 = assay: Cytotoxicity against human HFL1 cells incubated for 24 hrs; type: toxicity, cell-based; conditions: hfl1, 24 h
[23] = Plasma protein binding in mouse; type: ADME, cell-free; conditions: read-out: PPB (converted)
[24] = Cytotoxicity against human SKOV3.ip1 cells incubated for 24 hrs; type: toxicity, cell-based; conditions: skov3.ip1, 24 h
HEY A8 = assay: Anticancer activity against human HEY A8 cells incubated for 24; type: functional, cell-based
[25] = Cytotoxicity against human SKOV3/TR cells incubated for 24 hrs; type: toxicity, cell-based
A2780 = assay: Anticancer activity against human A2780 cells incubated for 24; type: functional, cell-based
CHO-K1 = assay: Cytotoxicity against CHO-K1 cells incubated for 24 hrs; type: toxicity, cell-based, Cricetulus griseus; conditions: chinese hamster, cho-k1, 24 h

hERG (KCNH2), sequence (Q12809 whole entry): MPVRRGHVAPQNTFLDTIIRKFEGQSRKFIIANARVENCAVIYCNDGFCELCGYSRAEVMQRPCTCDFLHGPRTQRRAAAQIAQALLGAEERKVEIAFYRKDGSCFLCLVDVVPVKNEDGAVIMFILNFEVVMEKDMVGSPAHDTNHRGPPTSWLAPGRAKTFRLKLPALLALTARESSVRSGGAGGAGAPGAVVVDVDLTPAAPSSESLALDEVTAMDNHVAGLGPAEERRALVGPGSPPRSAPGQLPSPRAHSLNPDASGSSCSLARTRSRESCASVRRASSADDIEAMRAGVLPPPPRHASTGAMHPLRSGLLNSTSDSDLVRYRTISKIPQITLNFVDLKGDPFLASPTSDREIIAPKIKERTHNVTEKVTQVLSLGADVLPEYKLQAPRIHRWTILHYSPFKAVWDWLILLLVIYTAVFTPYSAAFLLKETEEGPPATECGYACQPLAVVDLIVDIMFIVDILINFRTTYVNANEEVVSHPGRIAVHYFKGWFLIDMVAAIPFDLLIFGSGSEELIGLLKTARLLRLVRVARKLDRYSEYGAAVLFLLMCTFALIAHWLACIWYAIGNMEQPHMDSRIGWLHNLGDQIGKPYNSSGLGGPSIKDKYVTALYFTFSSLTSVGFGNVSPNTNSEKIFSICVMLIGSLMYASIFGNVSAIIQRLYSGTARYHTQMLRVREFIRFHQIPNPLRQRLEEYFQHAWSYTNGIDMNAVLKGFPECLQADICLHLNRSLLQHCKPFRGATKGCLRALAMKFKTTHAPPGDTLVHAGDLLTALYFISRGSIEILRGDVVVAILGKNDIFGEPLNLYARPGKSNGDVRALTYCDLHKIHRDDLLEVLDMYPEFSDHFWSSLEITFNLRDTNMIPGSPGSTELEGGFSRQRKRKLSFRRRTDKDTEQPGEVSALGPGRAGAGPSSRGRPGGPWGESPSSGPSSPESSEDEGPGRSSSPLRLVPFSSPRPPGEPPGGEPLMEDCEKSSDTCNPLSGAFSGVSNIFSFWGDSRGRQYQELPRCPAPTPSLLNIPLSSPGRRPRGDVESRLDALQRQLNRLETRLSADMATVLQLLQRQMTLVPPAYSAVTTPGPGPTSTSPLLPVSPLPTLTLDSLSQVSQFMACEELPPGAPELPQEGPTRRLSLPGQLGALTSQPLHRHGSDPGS

SMILES: CCCOc1ccc2nc(NS(=O)(=O)CC)[nH]c2c1
inhibition at 1 µM (NCI-H1299 [1]): 9% | inhibition at 1 µM (A549 [2]): 4% | inhibition at 1 µM (NCI-H460 [3]): 6%

SMILES: CCCOc1cc2[nH]c(NC(=O)CC)nc2cc1Cl
inhibition at 1 µM (NCI-H1299 [1]): 55% | inhibition at 1 µM (A549 [2]): 58% | inhibition at 1 µM (NCI-H460 [3]): 60%

SMILES: COC(=O)Nc1nc2ccc(OCCC(F)(F)F)cc2[nH]1
inhibition at 1 µM (NCI-H1299 [1]): 24% | inhibition at 1 µM (A549 [2]): 18% | inhibition at 1 µM (NCI-H460 [3]): 17%

SMILES: CCCOc1ccc2nc(N)[nH]c2c1
inhibition at 1 µM (NCI-H1299 [1]): 24% | inhibition at 1 µM (A549 [2]): 8% | inhibition at 1 µM (NCI-H460 [3]): 13%

Vd [4]: 2.8 L/kg | Cmax [5]: 580 ng/mL | half-life [6]: 0.25 h | bioavailability [7]: 44% | clearance [8]: 132 mL/min/kg | AUC [9]: 590 ng·h/mL
SMILES: CCCOc1ccc2nc(NC(=O)NC)[nH]c2c1
inhibition at 1 µM (NCI-H1299 [1]): 65% | inhibition at 1 µM (A549 [2]): 59% | inhibition at 1 µM (NCI-H460 [3]): 54%

SMILES: CCCOc1ccc2nc(N(C)C(=O)OC)[nH]c2c1
inhibition at 1 µM (NCI-H1299 [1]): 22% | inhibition at 1 µM (A549 [2]): 0% | inhibition at 1 µM (NCI-H460 [3]): 8%

SMILES: CC(=O)O[C@H]1C(=O)[C@@]2(C)[C@H]([C@H](OC(=O)c3ccccc3)[C@]3(O)C[C@H](OC(=O)[C@H](O)[C@@H](NC(=O)c4ccccc4)c4ccccc4)C(C)=C1C3(C)C)[C@]1(OC(C)=O)CO[C@@H]1C[C@@H]2O [PACLITAXEL]
inhibition at 1 µM (NCI-H1299 [1]): 73% | inhibition at 1 µM (A549 [2]): 74% | inhibition at 1 µM (NCI-H460 [3]): 63%

SMILES: CCCOc1cc2[nH]c(NC(=O)CC)nc2cc1C
inhibition at 1 µM (NCI-H1299 [1]): 26% | inhibition at 1 µM (A549 [2]): 34% | inhibition at 1 µM (NCI-H460 [3]): 40%

SMILES: COC(=O)Nc1nc2ccc(OCCCF)cc2[nH]1
inhibition at 1 µM (NCI-H1299 [1]): 25% | inhibition at 1 µM (A549 [2]): 28% | inhibition at 1 µM (NCI-H460 [3]): 20%

SMILES: COC(=O)Nc1nc2cc(C(=O)c3ccccc3)ccc2[nH]1 [MEBENDAZOLE]
inhibition at 1 µM (NCI-H1299 [1]): 52% | inhibition at 1 µM (A549 [2]): 48% | inhibition at 1 µM (NCI-H460 [3]): 46%

SMILES: CCCCc1ccc2[nH]c(NC(=O)OC)nc2c1 [PARBENDAZOLE]
inhibition at 1 µM (NCI-H1299 [1]): 37% | inhibition at 1 µM (A549 [2]): 47% | inhibition at 1 µM (NCI-H460 [3]): 27%

Vd [4]: 413 L/kg | Cmax [5]: 10 ng/mL | half-life [6]: 27 h | bioavailability [7]: 2.6% | clearance [8]: 350 mL/min/kg | AUC [9]: 10 ng·h/mL
SMILES: CCCOc1ccc2nc(NC(=O)OC)[nH]c2c1 [OXIBENDAZOLE]
inhibition at 1 µM (NCI-H1299 [1]): 65% | inhibition at 1 µM (A549 [2]): 58% | inhibition at 1 µM (NCI-H460 [3]): 47%

Vd [4]: 6.4 L/kg | Cmax [5]: 1560 ng/mL | half-life [6]: 18.6 h | bioavailability [7]: 25% | clearance [8]: 45.5 mL/min/kg | AUC [9]: 930 ng·h/mL
SMILES: CCCOc1ccc2nc(NC(=O)CC)[nH]c2c1
inhibition at 1 µM (NCI-H1299 [1]): 64% | inhibition at 1 µM (A549 [2]): 58% | inhibition at 1 µM (NCI-H460 [3]): 46%

SMILES: COC(=O)Nc1nc2cc(Sc3ccccc3)ccc2[nH]1 [FENBENDAZOLE]
inhibition at 1 µM (NCI-H1299 [1]): 59% | inhibition at 1 µM (A549 [2]): 44% | inhibition at 1 µM (NCI-H460 [3]): 43%

Vd [4]: 0.6 L/kg | remaining at 4 h [10]: 95% | Cmax [5]: 2760 ng/mL | remaining at 0.5 h [12]: 29% | remaining at 0.5 h [13]: 20% | half-life [6]: 0.3 h | bioavailability [7]: 50% | fraction unbound [18]: 0.17 | remaining at 4 h [19]: 95% | solubility [20]: 53 µM (≈ 14.1 µg/mL) | remaining at 0.5 h [21]: 2.6% | clearance [8]: 38.5 mL/min/kg | remaining at 4 h [22]: > 99% | fraction unbound [23]: 0.15 | AUC [9]: 2140 ng·h/mL
SMILES: CCCOc1cc2[nH]c(NC(=O)CC)nc2cc1F
inhibition at 1 µM (NCI-H1299 [1]): 62% | Activity [11]: Non-toxic | inhibition at 1 µM (A549 [2]): 64% | Activity (A549 [14]): Active | Activity [15]: Non-toxic | Activity (NCI-H460 [16]): Active | Activity (L929): Non-toxic | Activity (NCI-H1299 [17]): Active | inhibition at 10 µM (hERG (KCNH2)): 29% | Activity (NIH3T3): Non-toxic | TGI (HeyA8-MDR): Active | Activity (Vero): Non-toxic | Activity (HFL1): Non-toxic | Activity [24]: Non-toxic | Activity (HEY A8): Active | inhibition at 1 µM (NCI-H460 [3]): 63% | Activity [25]: Non-toxic | Activity (A2780): Active | Activity (CHO-K1): Non-toxic

SMILES: CCCCOc1ccc2nc(NC(=O)OC)[nH]c2c1
inhibition at 1 µM (NCI-H1299 [1]): 39% | inhibition at 1 µM (A549 [2]): 30% | inhibition at 1 µM (NCI-H460 [3]): 31%

SMILES: CCCOc1cc2[nH]c(NC(=O)CC)nc2cc1OC
inhibition at 1 µM (NCI-H1299 [1]): 11% | inhibition at 1 µM (A549 [2]): 10% | inhibition at 1 µM (NCI-H460 [3]): 14%

SMILES: CCOc1ccc2nc(NC(=O)OC)[nH]c2c1
inhibition at 1 µM (NCI-H1299 [1]): 23% | inhibition at 1 µM (A549 [2]): 25% | inhibition at 1 µM (NCI-H460 [3]): 27%

SMILES: CCCOc1ccc2c(c1)nc(NC(=O)OC)n2C
inhibition at 1 µM (NCI-H1299 [1]): 31% | inhibition at 1 µM (A549 [2]): 23% | inhibition at 1 µM (NCI-H460 [3]): 10%

SMILES: CCCOc1ccc2nc(NC(=O)OC)n(C)c2c1
inhibition at 1 µM (NCI-H1299 [1]): 19% | inhibition at 1 µM (A549 [2]): 10% | inhibition at 1 µM (NCI-H460 [3]): 10%
